Legend:
Settings in all cases: human, ipsc-cm
[1] = (§1) Electrical activity assay on cell lines treated with a given drug. DMSO was used as a vehicle and a control, unblinded dofetilide was used as a control.
[2] = as §1; remark: listed apart in the source
[3] = as §1; type: ADME, cell-based
[4] = as §1; remark: listed apart in the source
[5] = as §1; type: cell-based; design: APDc: unit not given here
[6] = as §1; type: ADME, cell-based; design: FPDc: unit not given here
[7] = as §1; type: ADME, cell-based; remark: listed apart in the source
[8] = as §1; remark: listed apart in the source
[9] = 0.03169 µM, concentration (um) 0.0316912 uM
[10] = 0.1001 µM, concentration (um) 0.100144 uM
[11] = 0.3165 µM, concentration (um) 0.316456 uM
[12] = 0.0009507 µM, concentration (um) 0.000950736 uM
[13] = 0.003004 µM, concentration (um) 0.00300433 uM
[14] = 0.009494 µM, concentration (um) 0.00949367 uM
[15] = 0.03 µM, concentration (um) 0.03 uM
[16] = 0.9507 µM, concentration (um) 0.950736 uM
[17] = 3.004 µM, concentration (um) 3.00433 uM
[18] = 9.494 µM, concentration (um) 9.49367 uM
[19] = 30 µM, concentration (um) 30 uM

SMILES: O=C(CCCN1CC=C(n2c(=O)[nH]c3ccccc32)CC1)c1ccc(F)cc1 [DROPERIDOL]
- FPDc ([1]; 0.03169 µM): 71.23
- FPDc ([1]; 0.1001 µM): 90.23
- FPDc ([1]; 0.3165 µM): 123.3
- FPDc ([1]; 1 µM): More Than Half The Wells Had A Quiescence Event Or Fpdc Readings Of 0
- APDc ([2]; 0.03169 µM): 57.78
- FPD measurement ([2]; 0.03169 µM): 57.78 FPDc
- APDc ([2]; 0.1001 µM): 53.48
- FPD measurement ([2]; 0.1001 µM): 53.48 FPDc
- APDc ([2]; 0.3165 µM): 58.08
- FPD measurement ([2]; 0.3165 µM): 58.08 FPDc
- APDc ([2]; 1 µM): 67.51
- FPD measurement ([2]; 1 µM): 67.51 FPDc
- FPD measurement [3, 9]: 60.21 FPDc
- FPDc [3, 9]: 6 Values Out Of 6 Were Excluded Due To Quiescence Or 0 Fpdc
- FPD measurement [3, 10]: 132.5 FPDc
- FPDc [3, 10]: 6 Values Out Of 6 Were Excluded Due To Quiescence Or 0 Fpdc
- FPD measurement [3, 11]: 151.8 FPDc
- FPDc [3, 11]: 6 Values Out Of 6 Were Excluded Due To Quiescence Or 0 Fpdc
- FPD measurement ([3]; 1 µM, concentration (um) 1 uM): 41.51 FPDc
- FPDc ([3]; 1 µM, concentration (um) 1 uM): 6 Values Out Of 6 Were Excluded Due To Quiescence Or 0 Fpdc
- FPD measurement ([4]; 0.03169 µM): 1 Values Out Of 1 Were Excluded Due To Quiescence Or 0 Fpdc
- FPDc ([4]; 0.03169 µM): 1 Values Out Of 1 Were Excluded Due To Quiescence Or 0 Fpdc
- FPD measurement ([4]; 0.1001 µM): 1 Values Out Of 1 Were Excluded Due To Quiescence Or 0 Fpdc
- FPDc ([4]; 0.1001 µM): 1 Values Out Of 1 Were Excluded Due To Quiescence Or 0 Fpdc
- FPD measurement ([4]; 0.3165 µM): 1 Values Out Of 1 Were Excluded Due To Quiescence Or 0 Fpdc
- FPDc ([4]; 0.3165 µM): 1 Values Out Of 1 Were Excluded Due To Quiescence Or 0 Fpdc
- FPD measurement ([4]; 1 µM): 1 Values Out Of 1 Were Excluded Due To Quiescence Or 0 Fpdc
- FPDc ([4]; 1 µM): 1 Values Out Of 1 Were Excluded Due To Quiescence Or 0 Fpdc

SMILES: O=c1[nH]c2ccccc2n1C1CCN(CCCC(c2ccc(F)cc2)c2ccc(F)cc2)CC1 [PIMOZIDE]
- FPD measurement [3, 12]: 46.31 FPDc
- FPDc [3, 12]: 6 Values Out Of 6 Were Excluded Due To Quiescence Or 0 Fpdc
- FPD measurement [3, 13]: 49.59 FPDc
- FPDc [3, 13]: 6 Values Out Of 6 Were Excluded Due To Quiescence Or 0 Fpdc
- FPD measurement [3, 14]: 61.97 FPDc
- FPDc [3, 14]: 6 Values Out Of 6 Were Excluded Due To Quiescence Or 0 Fpdc
- FPD measurement [3, 15]: 56.98 FPDc
- FPDc [3, 15]: 6 Values Out Of 6 Were Excluded Due To Quiescence Or 0 Fpdc
- APDc [5, 12]: 66.03
- FPD measurement [5, 12]: 66.03 FPDc
- APDc [5, 13]: 67.09
- FPD measurement [5, 13]: 67.09 FPDc
- APDc [5, 14]: 74.77
- FPD measurement [5, 14]: 74.77 FPDc
- APDc [5, 15]: 98.75
- FPD measurement [5, 15]: 98.75 FPDc
- FPD measurement ([4]; 0.0009507 µM): 1 Values Out Of 1 Were Excluded Due To Quiescence Or 0 Fpdc
- FPDc ([4]; 0.0009507 µM): 1 Values Out Of 1 Were Excluded Due To Quiescence Or 0 Fpdc
- FPD measurement ([4]; 0.003004 µM): 1 Values Out Of 1 Were Excluded Due To Quiescence Or 0 Fpdc
- FPDc ([4]; 0.003004 µM): 1 Values Out Of 1 Were Excluded Due To Quiescence Or 0 Fpdc
- FPD measurement ([4]; 0.009494 µM): 1 Values Out Of 1 Were Excluded Due To Quiescence Or 0 Fpdc
- FPDc ([4]; 0.009494 µM): 1 Values Out Of 1 Were Excluded Due To Quiescence Or 0 Fpdc
- FPD measurement ([4]; 0.03 µM): 1 Values Out Of 1 Were Excluded Due To Quiescence Or 0 Fpdc
- FPDc ([4]; 0.03 µM): 1 Values Out Of 1 Were Excluded Due To Quiescence Or 0 Fpdc
- FPDc [6, 12]: 18.43
- FPD measurement [6, 13]: 5 Values Out Of 5 Were Excluded Due To Quiescence Or 0 Apdc
- FPDc [6, 13]: 26.86
- FPDc [6, 14]: 37.06
- FPDc [6, 15]: 13.57

SMILES: C=C[C@H]1C[N@@]2CC[C@H]1C[C@@H]2[C@@H](O)c1ccnc2ccc(OC)cc12 [QUINIDINE]
- APDc ([2]; 0.9507 µM): 66.37
- FPD measurement ([2]; 0.9507 µM): 66.37 FPDc
- APDc ([2]; 3.004 µM): 68.44
- FPD measurement ([2]; 3.004 µM): 68.44 FPDc
- APDc ([2]; 9.494 µM): More Than Half The Wells Had A Quiescence Event Or Apdc Readings Of 0
- FPD measurement ([2]; 9.494 µM): More Than Half The Wells Had A Quiescence Event Or Apdc Readings Of 0
- APDc ([2]; 30 µM): More Than Half The Wells Had A Quiescence Event Or Apdc Readings Of 0
- FPD measurement ([2]; 30 µM): More Than Half The Wells Had A Quiescence Event Or Apdc Readings Of 0
- FPD measurement [7, 16]: 5 Values Out Of 5 Were Excluded Due To Quiescence Or 0 Apdc
- FPDc [7, 16]: 23.33
- FPD measurement [7, 17]: 5 Values Out Of 5 Were Excluded Due To Quiescence Or 0 Apdc
- FPDc [7, 17]: 5 Values Out Of 5 Were Excluded Due To Quiescence Or 0 Fpdc
- FPD measurement [7, 18]: More Than Half The Wells Had A Quiescence Event Or Apdc Readings Of 0
- FPDc [7, 18]: More Than Half The Wells Had A Quiescence Event Or Fpdc Readings Of 0
- FPD measurement [7, 19]: More Than Half The Wells Had A Quiescence Event Or Apdc Readings Of 0
- FPDc [7, 19]: More Than Half The Wells Had A Quiescence Event Or Fpdc Readings Of 0
- FPD measurement [3, 16]: 114.6 FPDc
- FPDc [3, 16]: 6 Values Out Of 6 Were Excluded Due To Quiescence Or 0 Fpdc
- FPD measurement [3, 17]: 62.36 FPDc
- FPDc [3, 17]: 6 Values Out Of 6 Were Excluded Due To Quiescence Or 0 Fpdc
- FPDc [3, 18]: 6 Values Out Of 6 Were Excluded Due To Quiescence Or 0 Fpdc
- FPDc [3, 19]: 6 Values Out Of 6 Were Excluded Due To Quiescence Or 0 Fpdc
- FPD measurement ([8]; 0.9507 µM): 66.27 FPDc
- FPDc ([8]; 0.9507 µM): 66.27
- FPD measurement ([8]; 3.004 µM): More Than Half The Wells Had A Quiescence Event Or Fpdc Readings Of 0
- FPDc ([8]; 3.004 µM): More Than Half The Wells Had A Quiescence Event Or Fpdc Readings Of 0
- FPD measurement ([8]; 9.494 µM): More Than Half The Wells Had A Quiescence Event Or Fpdc Readings Of 0
- FPDc ([8]; 9.494 µM): More Than Half The Wells Had A Quiescence Event Or Fpdc Readings Of 0
- FPD measurement ([8]; 30 µM): More Than Half The Wells Had A Quiescence Event Or Fpdc Readings Of 0
- FPDc ([8]; 30 µM): More Than Half The Wells Had A Quiescence Event Or Fpdc Readings Of 0
- FPD measurement [6, 16]: 5 Values Out Of 5 Were Excluded Due To Quiescence Or 0 Apdc
- FPDc [6, 16]: 51.68
- FPD measurement [6, 17]: 5 Values Out Of 5 Were Excluded Due To Quiescence Or 0 Apdc
- FPDc [6, 17]: 48.01
- FPD measurement [6, 18]: 5 Values Out Of 5 Were Excluded Due To Quiescence Or 0 Apdc
- FPDc [6, 18]: 56.69
- FPD measurement [6, 19]: 5 Values Out Of 5 Were Excluded Due To Quiescence Or 0 Apdc
- FPDc [6, 19]: 51.52

Source: ChEMBL document CHEMBL4295262, “Evaluation of the utility of stem-cell derived cardiomyocytes for drug proarrhythmic potential” (2019)
